Source: patent US8722849B2, “Polypeptides” (Novo Nordisk A/S, priority 2011, dated 2014)
In brackets after ≈: the same amount, converted by molar mass. Read-outs that look alike come from different tables or passages of the source. Starred links: 1 amine or outer side, 2 acyl side, 3 side chain; linkers in the order of their positions; H or OH if unused. Positions of bridges follow the written chain, without caps; N, C: chain ends. Residues, ends and D or L forms follow the SMILES beside them. *: point of attachment. C20 diacid = O=C(O)CCCCCCCCCCCCCCCCCCC(=O)*; γGlu = O=C(O)[C@H](CCC(=O)[*:2])N[*:1]; AEEA = NCCOCCOCC(=O)O

How the values were obtained:
[1] = target: T1, human amylin receptor (amylin 3(a) receptor: human calcitonin receptor + RAMP-3) (Homo sapiens, UniProt O60896+P30988); assay: Assay (II)a functional CRE-luciferase assay, human amylin receptor; assay type: cell-based
T1 construct: expressed in transfected cells; host or cells: BHK570
T1 sequence (P30988 25-474): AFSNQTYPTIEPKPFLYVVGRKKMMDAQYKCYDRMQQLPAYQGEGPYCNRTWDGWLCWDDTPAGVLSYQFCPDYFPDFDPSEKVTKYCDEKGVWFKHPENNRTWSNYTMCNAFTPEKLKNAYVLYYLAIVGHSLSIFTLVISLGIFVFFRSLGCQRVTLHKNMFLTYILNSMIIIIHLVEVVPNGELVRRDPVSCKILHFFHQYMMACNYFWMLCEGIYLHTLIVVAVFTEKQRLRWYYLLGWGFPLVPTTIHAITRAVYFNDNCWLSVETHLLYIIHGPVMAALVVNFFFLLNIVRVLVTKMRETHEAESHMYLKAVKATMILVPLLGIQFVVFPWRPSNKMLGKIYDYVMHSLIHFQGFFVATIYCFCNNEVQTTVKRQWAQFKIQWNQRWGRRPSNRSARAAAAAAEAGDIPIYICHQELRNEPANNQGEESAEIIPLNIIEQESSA
T1 sequence (O60896 24-148 partner): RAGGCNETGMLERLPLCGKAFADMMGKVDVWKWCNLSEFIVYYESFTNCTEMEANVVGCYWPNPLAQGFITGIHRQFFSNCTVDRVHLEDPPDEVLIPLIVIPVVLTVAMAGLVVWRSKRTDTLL

[2] = target: T2, human calcitonin receptor (Homo sapiens, UniProt P30988); assay: Assay (II)a functional CRE-luciferase assay, human calcitonin receptor; assay type: cell-based
T2 construct: expressed in transfected cells; host or cells: BHK570
T2 sequence (P30988 25-474): T1 sequence (P30988 25-474)

[3] = Assay (IV) determination of solubility; assay type: physicochemical
Procedure, shortened: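 Solubility is measured across pH 3.0–8.0 by mixing a ~500 nmol/ml aqueous polypeptide stock 1:1 with 100 mM glycylglycine or bistrispropane buffers. Samples stand 18 hours at room temperature, then are centrifuged and the soluble concentration is determined by HPLC.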

[4] = Table 2, BHK amylin 3(a)-receptor/CRE-luc cells
[5] = Table 7, human calcitonin (CTa) receptor
[6] = bistrispropane buffer, pH 6, pH 6.0, read-out: Solubility pH 6.0
[7] = bistrispropane buffer, pH 6.5, pH 6.5, read-out: Solubility pH 6.5
[8] = bistrispropane buffer, pH 7, pH 7.0, 18 hours at room temperature, Table 3, read-out: Solubility pH 7.0
[9] = bistrispropane buffer, pH 7, pH 7.0, read-out: Solubility pH 7.0
[10] = bistrispropane buffer, pH 7.5, pH 7.5, read-out: Solubility pH 7.5
[11] = bistrispropane buffer, pH 8, pH 8.0, read-out: Solubility pH 8.0
[12] = glycylglycine buffer, pH 3, pH 3.0, read-out: Solubility pH 3.0
[13] = glycylglycine buffer, pH 4, pH 4.0, 18 hours at room temperature, Table 2, read-out: Solubility pH 4.0
[14] = glycylglycine buffer, pH 4, pH 4.0, read-out: Solubility pH 4.0
[15] = glycylglycine buffer, pH 5, pH 5.0, read-out: Solubility pH 5.0

Row | EC50 [1, 4] | EC50 [2, 5] | solubility at 18 h [3, 6] | solubility at 18 h [3, 7] | solubility at 18 h [3, 8] | solubility at 18 h [3, 9] | solubility at 18 h [3, 10] | solubility at 18 h [3, 11] | solubility at 18 h [3, 12] | solubility at 18 h [3, 13] | solubility at 18 h [3, 14] | solubility at 18 h [3, 15] | other results | SMILES
1 | 0.334 nM | 0.672 nM | – | – | – | – | – | – | – | – | – | – | EC50 ([1]; Table 3, BHK amylin 3(a)-receptor/CRE-luc cells): 0.334 nM; EC50 ([1]; Table 4): 0.334 nM; EC50 ([1]; Table 6, human amylin receptor): 0.334 nM; EC50 ([1]; Table 7, human amylin receptor): 0.334 nM; EC50 ([1]; Table 11): 0.334 nM; EC50 ([2]; Table 11, read-out: CTa receptor human EC50): 0.672 nM; solubility ([3]; pH 3, pH 3.0, read-out: Solubility pH 3.0): > 200 µM; solubility ([3]; pH 4, pH 4.0, 18 hours at room temperature, Table 2, read-out: Solubility pH 4.0): > 200 µM; solubility ([3]; pH 4, pH 4.0, read-out: Solubility pH 4.0): > 200 µM; solubility ([3]; pH 5, pH 5.0, read-out: Solubility pH 5.0): 194 µM (≈ 896 µg/mL); solubility ([3]; pH 6, pH 6.0, read-out: Solubility pH 6.0): 176 µM (≈ 813 µg/mL); solubility ([3]; pH 6.5, pH 6.5, read-out: Solubility pH 6.5): 195 µM (≈ 901 µg/mL); solubility ([3]; pH 7, pH 7.0, 18 hours at room temperature, Table 3, read-out: Solubility pH 7.0): > 200 µM; solubility ([3]; pH 7, pH 7.0, read-out: Solubility pH 7.0): > 200 µM; solubility ([3]; pH 7.5, pH 7.5, read-out: Solubility pH 7.5): > 200 µM; solubility ([3]; pH 8, pH 8.0, read-out: Solubility pH 8.0): > 200 µM | CC[C@H](C)[C@H](NC(=O)[C@@H]1CCCN1C(=O)CNC(=O)[C@H](Cc1ccccc1)NC(=O)[C@H](CC(N)=O)NC(=O)[C@H](CC(N)=O)NC(=O)[C@H](CO)NC(=O)[C@H](CO)NC(=O)[C@H](Cc1c[nH]cn1)NC(=O)[C@H](Cc1c[nH]cn1)NC(=O)[C@H](CC(C)C)NC(=O)[C@H](Cc1ccccc1)NC(=O)[C@H](CCC(=O)O)NC(=O)[C@H](C)NC(=O)[C@H](CC(C)C)NC(=O)[C@H](CCCNC(=N)N)NC(=O)[C@H](CCC(N)=O)NC(=O)[C@@H](NC(=O)[C@H](C)NC(=O)[C@@H]1CSSC[C@H](NC(=O)COCCOCCNC(=O)COCCOCCNC(=O)CC[C@H](NC(=O)CCCCCCCCCCCCCCCCCCC(=O)O)C(=O)O)C(=O)N[C@@H](CC(N)=O)C(=O)N[C@@H]([C@@H](C)O)C(=O)N[C@@H](C)C(=O)N[C@@H]([C@@H](C)O)C(=O)N1)[C@@H](C)O)C(=O)N[C@@H](CC(C)C)C(=O)N1CCC[C@H]1C(=O)N1CCC[C@H]1C(=O)N[C@H](C(=O)N[C@@H](CC(N)=O)C(=O)N[C@H](C(=O)NCC(=O)N[C@@H](CO)C(=O)N[C@@H](CC(N)=O)C(=O)N[C@H](C(=O)N[C@@H](Cc1ccc(O)cc1)C(N)=O)[C@@H](C)O)C(C)C)[C@@H](C)O [Example 43, N-alpha-[2-(2-{2-[2-(2-{2-[(S)-4-Carboxy-4-(19-carboxyheptadecanoylamino)butyrylamino]ethoxy}ethoxy)acetylamino]ethoxy}ethoxy)acetyl]-[des1,Glu14,His17]-pramlintide] ({C20 diacid-γGlu-AEEA-AEEA}-CNTATCATQRLAEFLHHSSNNFGPILPPTNVGSNTY-NH2; disulfide 1-6)
2 | 0.313 nM | 0.526 nM | > 200 µM | > 200 µM | > 200 µM | > 200 µM | > 200 µM | > 200 µM | > 200 µM | > 200 µM | > 200 µM | > 200 µM | – | CC[C@H](C)[C@H](NC(=O)[C@@H]1CCCN1C(=O)CNC(=O)[C@H](Cc1ccccc1)NC(=O)[C@H](CC(N)=O)NC(=O)[C@H](CC(N)=O)NC(=O)[C@H](CO)NC(=O)[C@H](CO)NC(=O)[C@H](Cc1c[nH]cn1)NC(=O)[C@H](CCCNC(=N)N)NC(=O)[C@H](CC(C)C)NC(=O)[C@H](Cc1ccccc1)NC(=O)[C@H](CCC(=O)O)NC(=O)[C@H](C)NC(=O)[C@H](CC(C)C)NC(=O)[C@H](CCCNC(=N)N)NC(=O)[C@H](CCC(N)=O)NC(=O)[C@@H](NC(=O)[C@H](C)NC(=O)[C@@H]1CSSC[C@H](NC(=O)[C@H](CCCNC(=N)N)NC(=O)[C@H](CCC(=O)O)NC(=O)[C@H](CCC(=O)O)NC(=O)CC[C@H](NC(=O)CCCCCCCCCCCCCCCCCCC(=O)O)C(=O)O)C(=O)N[C@@H](CC(N)=O)C(=O)N[C@@H]([C@@H](C)O)C(=O)N[C@@H](C)C(=O)N[C@@H]([C@@H](C)O)C(=O)N1)[C@@H](C)O)C(=O)N[C@@H](CC(C)C)C(=O)N1CCC[C@H]1C(=O)N1CCC[C@H]1C(=O)N[C@H](C(=O)N[C@@H](CC(N)=O)C(=O)N[C@H](C(=O)NCC(=O)N[C@@H](CO)C(=O)N[C@@H](CC(N)=O)C(=O)N[C@H](C(=O)N1CCC[C@H]1C(N)=O)[C@@H](C)O)C(C)C)[C@@H](C)O [Example 155, N-alpha-[(S)-4-Carboxy-4-(19-carboxynonadecanoylamino)butyryl]-Glu-Glu-[Arg1,Glu14,Arg17,Pro37]-pramlintide] ({C20 diacid-γGlu}-EERCNTATCATQRLAEFLRHSSNNFGPILPPTNVGSNTP-NH2; disulfide 4-9 (inferred); C-terminus assumed)
3 | 0.465 nM | 0.547 nM | > 200 µM | > 200 µM | > 200 µM | > 200 µM | > 200 µM | > 200 µM | > 200 µM | > 200 µM | > 200 µM | > 200 µM | – | CC[C@H](C)[C@H](NC(=O)[C@@H]1CCCN1C(=O)CNC(=O)[C@H](Cc1ccccc1)NC(=O)[C@H](CC(N)=O)NC(=O)[C@H](CCC(N)=O)NC(=O)[C@H](CO)NC(=O)[C@H](CO)NC(=O)[C@H](Cc1c[nH]cn1)NC(=O)[C@H](CCCNC(=N)N)NC(=O)[C@H](CC(C)C)NC(=O)[C@H](Cc1ccccc1)NC(=O)[C@H](CCC(=O)O)NC(=O)[C@H](C)NC(=O)[C@H](CC(C)C)NC(=O)[C@H](CCCNC(=N)N)NC(=O)[C@H](CCC(N)=O)NC(=O)[C@@H](NC(=O)[C@H](C)NC(=O)[C@@H]1CSSC[C@H](NC(=O)[C@H](CCCNC(=N)N)NC(=O)[C@H](CCC(=O)O)NC(=O)[C@H](CCC(=O)O)NC(=O)CC[C@H](NC(=O)CCCCCCCCCCCCCCCCCCC(=O)O)C(=O)O)C(=O)N[C@@H](CC(N)=O)C(=O)N[C@@H]([C@@H](C)O)C(=O)N[C@@H](C)C(=O)N[C@@H]([C@@H](C)O)C(=O)N1)[C@@H](C)O)C(=O)N[C@@H](CC(C)C)C(=O)N1CCC[C@H]1C(=O)N1CCC[C@H]1C(=O)N[C@H](C(=O)N[C@@H](CC(N)=O)C(=O)N[C@H](C(=O)NCC(=O)N[C@@H](CO)C(=O)N[C@@H](CC(N)=O)C(=O)N[C@H](C(=O)N1CCC[C@H]1C(N)=O)[C@@H](C)O)C(C)C)[C@@H](C)O [Example 157, N-alpha-[(S)-4-Carboxy-4-(19-carboxynonadecanoylamino)butyryl]-Glu-Glu-[Arg1,Glu14,Arg17,Gln21,Pro37]-pramlintide] ({C20 diacid-γGlu}-EERCNTATCATQRLAEFLRHSSQNFGPILPPTNVGSNTP-NH2; disulfide 4-9 (inferred); C-terminus assumed)
